For one test, the target named is T1, GRK2 (Homo sapiens, UniProt P25098).
T1 sequence (P25098 1-689): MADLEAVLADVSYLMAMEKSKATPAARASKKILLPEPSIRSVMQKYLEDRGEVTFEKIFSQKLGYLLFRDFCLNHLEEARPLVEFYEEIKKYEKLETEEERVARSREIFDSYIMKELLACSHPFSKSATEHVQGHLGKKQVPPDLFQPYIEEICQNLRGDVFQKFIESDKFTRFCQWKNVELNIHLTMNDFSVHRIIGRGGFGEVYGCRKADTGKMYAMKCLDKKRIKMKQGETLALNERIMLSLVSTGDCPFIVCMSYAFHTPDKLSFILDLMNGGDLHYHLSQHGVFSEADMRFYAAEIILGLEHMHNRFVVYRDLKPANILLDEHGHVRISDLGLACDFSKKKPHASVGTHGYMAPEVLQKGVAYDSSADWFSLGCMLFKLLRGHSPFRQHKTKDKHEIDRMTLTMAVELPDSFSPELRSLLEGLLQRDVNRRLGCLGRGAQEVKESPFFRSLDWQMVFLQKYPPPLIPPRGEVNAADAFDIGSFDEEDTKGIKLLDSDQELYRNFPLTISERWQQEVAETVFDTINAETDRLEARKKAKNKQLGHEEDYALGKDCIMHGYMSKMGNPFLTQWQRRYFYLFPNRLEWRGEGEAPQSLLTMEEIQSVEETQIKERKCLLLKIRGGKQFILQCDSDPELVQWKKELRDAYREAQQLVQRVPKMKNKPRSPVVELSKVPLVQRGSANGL
Kind of test: biochemical. Particulars: read-out: % enzyme activity, 1 μM; Run 1, Run 2.

Another test deals with AKT1 (Homo sapiens, UniProt P31749). Kind of test: biochemical. Particulars: read-out: % enzyme activity, 1 μM; Run 1, Run 2.
AKT1, sequence (P31749 whole entry): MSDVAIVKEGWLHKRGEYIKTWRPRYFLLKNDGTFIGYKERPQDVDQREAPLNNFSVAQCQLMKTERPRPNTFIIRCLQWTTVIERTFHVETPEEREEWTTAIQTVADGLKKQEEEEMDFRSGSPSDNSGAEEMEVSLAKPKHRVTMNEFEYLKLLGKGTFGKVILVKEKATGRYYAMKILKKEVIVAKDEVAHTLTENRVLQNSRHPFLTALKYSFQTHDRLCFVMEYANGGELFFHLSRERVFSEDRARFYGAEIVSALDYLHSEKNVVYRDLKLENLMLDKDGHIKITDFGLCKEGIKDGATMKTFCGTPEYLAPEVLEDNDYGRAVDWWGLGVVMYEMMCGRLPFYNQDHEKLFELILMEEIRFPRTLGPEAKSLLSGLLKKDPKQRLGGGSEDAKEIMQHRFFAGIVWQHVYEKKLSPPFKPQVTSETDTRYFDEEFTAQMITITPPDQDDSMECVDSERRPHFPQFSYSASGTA
For the next test, the target named is TIE2/TEK (Homo sapiens, UniProt Q02763). Kind of test: biochemical. As to conditions: read-out: % enzyme activity, 1 μM; Run 1, Run 2.
TIE2/TEK, sequence (Q02763 23-1124): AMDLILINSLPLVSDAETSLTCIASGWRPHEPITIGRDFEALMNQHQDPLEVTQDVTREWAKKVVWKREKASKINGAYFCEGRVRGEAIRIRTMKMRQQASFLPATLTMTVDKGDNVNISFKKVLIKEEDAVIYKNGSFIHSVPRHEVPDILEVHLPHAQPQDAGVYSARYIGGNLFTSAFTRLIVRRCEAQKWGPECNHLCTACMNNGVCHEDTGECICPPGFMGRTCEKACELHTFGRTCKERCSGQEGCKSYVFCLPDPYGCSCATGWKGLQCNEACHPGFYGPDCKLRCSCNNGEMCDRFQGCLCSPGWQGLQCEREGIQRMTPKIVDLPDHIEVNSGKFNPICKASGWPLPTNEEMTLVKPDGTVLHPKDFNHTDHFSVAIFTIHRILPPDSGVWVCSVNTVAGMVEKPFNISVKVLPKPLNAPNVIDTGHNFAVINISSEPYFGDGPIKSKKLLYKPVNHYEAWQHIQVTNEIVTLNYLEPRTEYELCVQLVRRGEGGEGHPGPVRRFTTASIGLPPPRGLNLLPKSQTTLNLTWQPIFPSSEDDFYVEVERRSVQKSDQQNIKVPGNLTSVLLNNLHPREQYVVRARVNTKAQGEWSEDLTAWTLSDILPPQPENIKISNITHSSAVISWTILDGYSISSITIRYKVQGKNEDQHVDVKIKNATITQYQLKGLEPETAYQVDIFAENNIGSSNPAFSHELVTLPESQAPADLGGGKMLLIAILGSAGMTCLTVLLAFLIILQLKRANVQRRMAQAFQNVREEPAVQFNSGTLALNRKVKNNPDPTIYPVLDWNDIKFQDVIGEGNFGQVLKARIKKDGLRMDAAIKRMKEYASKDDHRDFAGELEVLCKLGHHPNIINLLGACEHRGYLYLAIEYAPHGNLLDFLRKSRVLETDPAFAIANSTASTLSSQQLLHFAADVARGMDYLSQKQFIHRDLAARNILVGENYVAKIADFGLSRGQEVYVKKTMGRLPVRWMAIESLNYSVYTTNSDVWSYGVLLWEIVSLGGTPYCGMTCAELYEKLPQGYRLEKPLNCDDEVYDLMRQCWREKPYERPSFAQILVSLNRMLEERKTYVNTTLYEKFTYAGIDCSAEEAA
The next test deals with WNK2 (Homo sapiens, UniProt Q9Y3S1). As to conditions: 1 μM; Run 1, Run 2.
WNK2, sequence (Q9Y3S1 whole entry, species assumed): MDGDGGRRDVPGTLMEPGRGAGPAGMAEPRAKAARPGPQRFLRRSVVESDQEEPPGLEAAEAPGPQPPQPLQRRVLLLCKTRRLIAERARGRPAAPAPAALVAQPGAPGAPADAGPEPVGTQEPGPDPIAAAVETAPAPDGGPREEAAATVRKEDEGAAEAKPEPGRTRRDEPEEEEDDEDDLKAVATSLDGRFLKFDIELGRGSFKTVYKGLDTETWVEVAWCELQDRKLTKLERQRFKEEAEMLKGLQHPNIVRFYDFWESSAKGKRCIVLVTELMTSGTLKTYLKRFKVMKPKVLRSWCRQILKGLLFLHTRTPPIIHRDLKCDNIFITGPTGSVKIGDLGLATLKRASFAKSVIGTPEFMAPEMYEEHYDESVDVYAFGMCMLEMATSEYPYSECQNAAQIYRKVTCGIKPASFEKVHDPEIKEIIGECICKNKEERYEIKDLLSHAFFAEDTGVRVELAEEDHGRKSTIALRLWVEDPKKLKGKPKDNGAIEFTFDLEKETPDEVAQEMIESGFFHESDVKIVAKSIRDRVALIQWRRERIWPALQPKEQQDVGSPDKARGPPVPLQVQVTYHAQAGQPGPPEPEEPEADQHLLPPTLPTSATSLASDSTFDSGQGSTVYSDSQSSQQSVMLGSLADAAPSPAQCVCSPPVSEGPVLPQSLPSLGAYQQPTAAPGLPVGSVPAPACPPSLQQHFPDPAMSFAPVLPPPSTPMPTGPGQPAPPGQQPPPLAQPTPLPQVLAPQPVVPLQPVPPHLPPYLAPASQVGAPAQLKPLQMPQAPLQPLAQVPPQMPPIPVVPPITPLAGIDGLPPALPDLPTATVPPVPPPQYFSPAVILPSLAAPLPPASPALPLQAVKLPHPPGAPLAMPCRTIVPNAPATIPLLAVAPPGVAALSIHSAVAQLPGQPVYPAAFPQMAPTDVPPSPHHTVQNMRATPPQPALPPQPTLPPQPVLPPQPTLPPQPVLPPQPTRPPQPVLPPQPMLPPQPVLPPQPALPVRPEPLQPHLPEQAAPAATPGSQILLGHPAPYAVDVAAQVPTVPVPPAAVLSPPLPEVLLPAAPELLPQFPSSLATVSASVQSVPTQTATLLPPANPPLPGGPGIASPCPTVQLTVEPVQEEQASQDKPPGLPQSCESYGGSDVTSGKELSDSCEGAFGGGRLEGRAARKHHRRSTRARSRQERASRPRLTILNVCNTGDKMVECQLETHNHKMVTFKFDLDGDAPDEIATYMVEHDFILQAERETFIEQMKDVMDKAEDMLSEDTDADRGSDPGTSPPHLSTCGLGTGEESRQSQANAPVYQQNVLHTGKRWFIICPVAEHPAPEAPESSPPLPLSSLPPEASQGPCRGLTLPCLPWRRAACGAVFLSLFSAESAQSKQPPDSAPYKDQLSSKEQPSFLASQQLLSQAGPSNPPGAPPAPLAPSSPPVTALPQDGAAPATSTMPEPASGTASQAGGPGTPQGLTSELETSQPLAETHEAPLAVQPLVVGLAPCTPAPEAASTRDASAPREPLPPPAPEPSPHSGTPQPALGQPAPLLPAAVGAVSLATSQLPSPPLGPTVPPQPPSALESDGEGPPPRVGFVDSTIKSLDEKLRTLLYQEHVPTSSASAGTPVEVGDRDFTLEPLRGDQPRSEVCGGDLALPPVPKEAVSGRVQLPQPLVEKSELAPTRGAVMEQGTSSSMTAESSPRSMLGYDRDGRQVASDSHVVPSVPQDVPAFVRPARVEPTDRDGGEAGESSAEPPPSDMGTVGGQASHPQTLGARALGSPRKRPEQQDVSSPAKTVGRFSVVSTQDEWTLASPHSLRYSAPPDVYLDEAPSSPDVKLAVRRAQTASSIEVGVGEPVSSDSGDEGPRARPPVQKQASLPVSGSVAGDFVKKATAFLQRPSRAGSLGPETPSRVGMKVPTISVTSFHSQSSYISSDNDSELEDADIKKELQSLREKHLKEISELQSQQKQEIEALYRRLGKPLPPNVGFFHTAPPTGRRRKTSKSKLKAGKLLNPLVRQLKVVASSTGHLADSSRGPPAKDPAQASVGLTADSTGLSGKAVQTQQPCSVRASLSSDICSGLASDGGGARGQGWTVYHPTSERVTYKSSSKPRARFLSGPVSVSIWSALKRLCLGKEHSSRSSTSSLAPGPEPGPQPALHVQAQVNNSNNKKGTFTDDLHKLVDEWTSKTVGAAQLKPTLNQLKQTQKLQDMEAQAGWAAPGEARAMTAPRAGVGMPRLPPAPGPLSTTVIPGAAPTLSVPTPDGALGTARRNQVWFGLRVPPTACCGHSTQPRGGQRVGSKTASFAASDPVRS
The target of a further test is PIM1 (Homo sapiens, UniProt P11309). As to conditions: 1 μM; Run 1, Run 2.
PIM1, sequence (P11309 whole entry): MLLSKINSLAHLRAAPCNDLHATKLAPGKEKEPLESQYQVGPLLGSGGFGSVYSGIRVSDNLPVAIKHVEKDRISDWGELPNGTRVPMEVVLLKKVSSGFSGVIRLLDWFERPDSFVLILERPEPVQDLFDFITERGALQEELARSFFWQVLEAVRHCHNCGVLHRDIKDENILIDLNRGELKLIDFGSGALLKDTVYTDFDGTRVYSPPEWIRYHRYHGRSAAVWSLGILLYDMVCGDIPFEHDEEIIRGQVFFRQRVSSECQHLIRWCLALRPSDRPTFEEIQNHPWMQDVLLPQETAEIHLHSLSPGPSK
Another test deals with T2, EPHA1 (Homo sapiens, UniProt P21709).
T2 sequence (P21709 26-976): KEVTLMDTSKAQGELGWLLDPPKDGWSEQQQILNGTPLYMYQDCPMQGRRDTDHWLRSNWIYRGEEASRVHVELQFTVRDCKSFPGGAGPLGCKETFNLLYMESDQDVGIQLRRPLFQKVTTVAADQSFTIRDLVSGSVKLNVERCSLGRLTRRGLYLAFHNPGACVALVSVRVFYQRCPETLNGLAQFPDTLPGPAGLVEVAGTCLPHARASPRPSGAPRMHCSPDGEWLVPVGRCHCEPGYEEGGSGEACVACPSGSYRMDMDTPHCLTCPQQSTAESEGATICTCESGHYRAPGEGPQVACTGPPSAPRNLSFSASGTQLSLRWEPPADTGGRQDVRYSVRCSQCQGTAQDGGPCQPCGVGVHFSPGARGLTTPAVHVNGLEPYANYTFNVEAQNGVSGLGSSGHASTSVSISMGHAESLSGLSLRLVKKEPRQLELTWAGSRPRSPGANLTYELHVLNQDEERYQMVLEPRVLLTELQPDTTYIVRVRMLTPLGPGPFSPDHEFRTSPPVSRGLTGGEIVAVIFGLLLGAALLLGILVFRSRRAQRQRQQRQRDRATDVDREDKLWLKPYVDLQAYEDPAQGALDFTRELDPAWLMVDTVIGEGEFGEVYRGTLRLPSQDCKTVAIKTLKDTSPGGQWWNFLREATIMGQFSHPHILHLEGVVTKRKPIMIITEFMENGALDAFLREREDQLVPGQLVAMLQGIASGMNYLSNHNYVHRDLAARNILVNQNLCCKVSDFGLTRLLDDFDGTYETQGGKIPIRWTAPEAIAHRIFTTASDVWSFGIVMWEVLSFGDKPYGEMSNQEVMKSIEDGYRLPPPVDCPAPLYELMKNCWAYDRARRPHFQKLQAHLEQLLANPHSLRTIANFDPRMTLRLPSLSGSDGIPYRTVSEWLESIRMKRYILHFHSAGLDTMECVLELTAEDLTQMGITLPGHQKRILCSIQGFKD
Particulars: 1 μM; Run 1, Run 2.

In a further test the target is CDK4/cyclin D3 (Homo sapiens, UniProt P11802). Particulars: 1 μM; Run 1, Run 2.
CDK4/cyclin D3, sequence (P11802 whole entry): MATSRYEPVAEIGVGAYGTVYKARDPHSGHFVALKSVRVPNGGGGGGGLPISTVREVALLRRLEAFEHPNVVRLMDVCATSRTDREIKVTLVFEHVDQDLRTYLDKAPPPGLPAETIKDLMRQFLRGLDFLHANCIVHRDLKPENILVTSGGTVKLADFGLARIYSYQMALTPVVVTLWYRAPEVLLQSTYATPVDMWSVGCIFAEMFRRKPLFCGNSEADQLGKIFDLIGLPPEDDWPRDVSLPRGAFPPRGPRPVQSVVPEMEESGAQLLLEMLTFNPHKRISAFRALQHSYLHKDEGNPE
CDK4/cyclin D3, sequence (P30281 whole entry partner): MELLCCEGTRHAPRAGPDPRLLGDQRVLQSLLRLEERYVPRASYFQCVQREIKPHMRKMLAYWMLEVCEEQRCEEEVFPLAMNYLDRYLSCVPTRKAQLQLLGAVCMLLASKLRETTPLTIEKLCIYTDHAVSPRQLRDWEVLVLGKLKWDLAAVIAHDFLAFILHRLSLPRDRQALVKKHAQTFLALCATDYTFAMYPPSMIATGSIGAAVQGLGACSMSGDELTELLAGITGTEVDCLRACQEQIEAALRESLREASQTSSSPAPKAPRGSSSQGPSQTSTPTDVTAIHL
For a further test, the target named is T3, ZAP70 (Homo sapiens, UniProt P43403).
T3 sequence (P43403 1-619): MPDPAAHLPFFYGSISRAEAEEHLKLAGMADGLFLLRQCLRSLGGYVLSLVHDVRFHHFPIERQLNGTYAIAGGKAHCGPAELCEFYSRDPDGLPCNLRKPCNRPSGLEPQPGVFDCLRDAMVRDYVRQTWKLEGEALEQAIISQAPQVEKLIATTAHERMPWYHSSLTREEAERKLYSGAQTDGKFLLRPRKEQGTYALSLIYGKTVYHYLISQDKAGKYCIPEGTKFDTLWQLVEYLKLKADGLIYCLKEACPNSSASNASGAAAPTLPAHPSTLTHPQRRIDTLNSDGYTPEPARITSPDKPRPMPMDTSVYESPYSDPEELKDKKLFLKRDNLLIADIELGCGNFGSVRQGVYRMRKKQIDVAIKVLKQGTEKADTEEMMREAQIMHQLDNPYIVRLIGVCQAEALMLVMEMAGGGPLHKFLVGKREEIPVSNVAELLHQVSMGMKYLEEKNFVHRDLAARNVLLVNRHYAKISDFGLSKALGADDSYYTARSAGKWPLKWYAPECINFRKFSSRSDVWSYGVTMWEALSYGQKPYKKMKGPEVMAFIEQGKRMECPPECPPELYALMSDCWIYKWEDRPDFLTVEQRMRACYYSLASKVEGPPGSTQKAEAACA
Particulars: 1 μM; Run 1, Run 2.

As to `COc1cc(-c2cncc(-c3ccc(N4CCN(C)CC4)cc3)c2C)cc(F)c1C(N)=O` [Compound 26a, 2-Fluoro-6-methoxy-4-(4-methyl-5-(4-(4-methylpiperazin-1-yl)phenyl)pyridin-3-yl)benzamide], the remaining activity at 1 µM on GRK2 stood at 105%; on AKT1 it was 106%; on TIE2/TEK it was 93.8%. In addition, the “% enzyme activity” value on WNK2 is listed as 95.09%; at PIM1, 97.92%; on EPHA1 it was 96.36%; at CDK4/cyclin D3 it was 96.96%; at ZAP70, 94.79%.
`COc1cc(-c2cncc(-c3ccc(N4C[C@@H](C)N(C)[C@@H](C)C4)cc3)c2C)cc(F)c1C(N)=O` [Compound 26c, 2-Fluoro-6-methoxy-4-(4-methyl-5-(4-((3R,5S)-3,4,5-trimethylpiperazin-1-yl)phenyl)pyridin-3-yl)benzamide]: the remaining activity at 1 µM on GRK2 came to 101%; at AKT1 it was 105%; on TIE2/TEK, 93.4%. Further, the “% enzyme activity” value on WNK2 amounted to 93.64%; on PIM1 it was 92.25%; at EPHA1, 89.93%; at CDK4/cyclin D3, 95.54%; at ZAP70 it was 98.47%.

The record behind these values is PMC8213057, “Targeting ALK2: An Open Science Approach to Developing Therapeutics for the Treatment of Diffuse Intrinsic Pontine Glioma” (Journal of Medicinal Chemistry, 2020).
